From patent publication US12077503B2, “Substituted cyclic amides and their use as herbicides” (FMC CORPORATION, priority 2015, dated 2024)

What was measured:
Format in all cases: in vivo
[1] = system: barnyardgrass (Echinochloa crus-galli); assay: Test A postemergence
Description: (§1) Seeds of plant species selected from barnyardgrass (Echinochloa crus-galli), Kochia (Kochia scoparia), ragweed (common ragweed, Ambrosia elatior), ryegrass, Italian (Italian ryegrass, Lolium multiflorum), crabgrass, large (Digitaria sanguinalis), giant foxtail (Setaria faberii), green foxtail (Setaria viridis), morningglory (Ipomoea spp.), pigweed (Amaranthus retroflexus), velvetleaf (Abutilon theophrasti), wheat (Triticum aestivum), and corn (Zea mays) were planted into a blend of loam soil and sand and treated preemergence with a directed soil spray using test chemicals formulated in anon-phytotoxic solvent mixture which included a surfactant.
(§2) At the same time, plants selected from these crop and weed species and also blackgrass (Alopecurus myosuroides), and Galium (catchweed bedstraw, Galium aparine) were planted in pots containing the same blend of loam soil and sand and treated with postemergence applications of test chemicals formulated in the same manner. Plants ranged in height from 2 to 10 cm and were in the one- to two-leaf stage for the postemergence treatment. Treated plants and untreated controls were maintained in a greenhouse for approximately 10 d, after which time all treated plants were compared to untreated controls and visually evaluated for injury. Plant response ratings, summarized in Table A, are based on a 0 to 100 scale where 0 is no effect and 100 is complete control. A dash (-) response means no test result.

[2] = system: wheat (Triticum aestivum); assay: Test A postemergence
Description: as §1, §2

[3] = system: Galium (catchweed bedstraw, Galium aparine); assay: Test A postemergence
Description: as §1, §2

corn (Zea mays) = assay: Test A postemergence
Description: as §1, §2

[4] = system: pigweed (Amaranthus retroflexus); assay: Test A postemergence
Description: as §1, §2

[5] = system: ryegrass, Italian (Italian ryegrass, Lolium multiflorum); assay: Test A postemergence
Description: as §1, §2

[6] = system: ragweed (common ragweed, Ambrosia elatior); assay: Test A postemergence
Description: as §1, §2

[7] = system: giant foxtail (Setaria faberii); assay: Test A postemergence
Description: as §1, §2

[8] = system: blackgrass (Alopecurus myosuroides); assay: Test A postemergence
Description: as §1, §2

Kochia (Kochia scoparia) [9] = assay: Test A postemergence
Description: as §1, §2

[10] = system: barnyardgrass (Echinochloa crus-galli); assay: Test A preemergence; conditions: Preemergence; for Plant response rating, Barnyardgrass: 125 g ai/ha, visual injury after approximately 10 d, 0 to 100 scale where 0 is no effect and 100 is complete control; for Barnyardgrass plant response rating (0 to 100 scale, 0 is no effect, 100 is complete control): 500 g ai/ha, visual injury approx. 10 d
Description: as §1, §2

[11] = system: pigweed (Amaranthus retroflexus); assay: Test A preemergence; conditions: Preemergence; for Plant response rating, Pigweed: 125 g ai/ha, visual injury after approximately 10 d, 0 to 100 scale where 0 is no effect and 100 is complete control; for Pigweed plant response rating (0 to 100 scale, 0 is no effect, 100 is complete control): 500 g ai/ha, visual injury approx. 10 d
Description: as §1, §2

[12] = system: ryegrass, Italian (Italian ryegrass, Lolium multiflorum); assay: Test A preemergence; conditions: Preemergence; for Plant response rating, Ryegrass, Italian: 125 g ai/ha, visual injury after approximately 10 d, 0 to 100 scale where 0 is no effect and 100 is complete control; for Ryegrass, Italian plant response rating (0 to 100 scale, 0 is no effect, 100 is complete control): 500 g ai/ha, visual injury approx. 10 d
Description: as §1, §2

[13] = system: ragweed (common ragweed, Ambrosia elatior); assay: Test A preemergence; conditions: Preemergence; for Plant response rating, Ragweed: 125 g ai/ha, visual injury after approximately 10 d, 0 to 100 scale where 0 is no effect and 100 is complete control; for Ragweed plant response rating (0 to 100 scale, 0 is no effect, 100 is complete control): 500 g ai/ha, visual injury approx. 10 d
Description: as §1, §2

[14] = system: giant foxtail (Setaria faberii); assay: Test A preemergence; conditions: Preemergence; for Plant response rating, Foxtail, Giant: 125 g ai/ha, visual injury after approximately 10 d, 0 to 100 scale where 0 is no effect and 100 is complete control; for Foxtail, Giant plant response rating (0 to 100 scale, 0 is no effect, 100 is complete control): 500 g ai/ha, visual injury approx. 10 d
Description: as §1, §2

Kochia (Kochia scoparia) [15] = assay: Test A preemergence; conditions: Preemergence; for Plant response rating, Kochia: 125 g ai/ha, visual injury after approximately 10 d, 0 to 100 scale where 0 is no effect and 100 is complete control; for Kochia plant response rating (0 to 100 scale, 0 is no effect, 100 is complete control): 500 g ai/ha, visual injury approx. 10 d
Description: as §1, §2

[16] = 125 g ai/ha, postemergence, visual rating after approx. 10 d, 0 to 100 scale (0 no effect, 100 complete control)
[17] = Postemergence, 500 g ai/ha, 0 to 100 scale where 0 is no effect and 100 is complete control

Compound | Plant response rating, Barnyardgrass [1, 16] | Plant response rating, Barnyardgrass [1, 17] | Plant response rating, Wheat [2, 16] | Plant response rating, Wheat [2, 17] | Plant response rating, Galium [3, 16] | Plant response rating, Galium [3, 17] | Plant response rating, Corn (corn (Zea mays); [16]) | Plant response rating, Corn (corn (Zea mays); [17]) | Plant response rating, Pigweed [4, 16] | Plant response rating, Pigweed [4, 17] | Plant response rating, Ryegrass, Italian [5, 16] | Plant response rating, Ryegrass, Italian [5, 17] | Plant response rating, Ragweed [6, 16] | Plant response rating, Ragweed [6, 17] | Plant response rating, Foxtail, Giant [7, 16] | Plant response rating, Foxtail, Giant [7, 17] | Plant response rating, Blackgrass [8, 16] | Plant response rating, Blackgrass [8, 17] | Plant response rating, Kochia (Kochia (Kochia scoparia) [9]; [16]) | Plant response rating, Kochia (Kochia (Kochia scoparia) [9]; [17]) | other results
Cc1c(F)cccc1NC(=O)C1C(=O)N(C)CC1c1cccc(C(F)(F)F)c1 (stereo not shown) [Compound 573] | 90 | 100 | 70 | 70 | 60 | 70 | 80 | 90 | 30 | 40 | 70 | 90 | 20 | 60 | 90 | 90 | 70 | 70 | 50 | 60 | Plant response rating, Barnyardgrass [10]: 90; Barnyardgrass plant response rating (0 to 100 scale, 0 is no effect, 100 is complete control) [10]: 100; Plant response rating, Pigweed [11]: 40; Pigweed plant response rating (0 to 100 scale, 0 is no effect, 100 is complete control) [11]: 80; Plant response rating, Ryegrass, Italian [12]: 80; Ryegrass, Italian plant response rating (0 to 100 scale, 0 is no effect, 100 is complete control) [12]: 90; Plant response rating, Ragweed [13]: 0; Ragweed plant response rating (0 to 100 scale, 0 is no effect, 100 is complete control) [13]: 50; Plant response rating, Foxtail, Giant [14]: 90; Foxtail, Giant plant response rating (0 to 100 scale, 0 is no effect, 100 is complete control) [14]: 100; Plant response rating, Kochia (Kochia (Kochia scoparia) [15]): 70; Kochia plant response rating (0 to 100 scale, 0 is no effect, 100 is complete control) (Kochia (Kochia scoparia) [15]): 80
CCc1cccc(C2CN(C)C(=O)C2C(=O)Nc2ccccc2F)c1 (stereo not shown) [Compound 567] | 90 | 100 | 30 | 60 | 40 | 50 | 70 | 90 | 20 | 20 | 70 | 70 | 0 | 0 | 90 | 90 | 60 | 80 | 20 | 50 | Plant response rating, Barnyardgrass [10]: 100; Barnyardgrass plant response rating (0 to 100 scale, 0 is no effect, 100 is complete control) [10]: 100; Plant response rating, Pigweed [11]: 20; Pigweed plant response rating (0 to 100 scale, 0 is no effect, 100 is complete control) [11]: 40; Plant response rating, Ryegrass, Italian [12]: 60; Ryegrass, Italian plant response rating (0 to 100 scale, 0 is no effect, 100 is complete control) [12]: 80; Plant response rating, Ragweed [13]: 50; Ragweed plant response rating (0 to 100 scale, 0 is no effect, 100 is complete control) [13]: 60; Plant response rating, Foxtail, Giant [14]: 100; Foxtail, Giant plant response rating (0 to 100 scale, 0 is no effect, 100 is complete control) [14]: 100; Plant response rating, Kochia (Kochia (Kochia scoparia) [15]): 60; Kochia plant response rating (0 to 100 scale, 0 is no effect, 100 is complete control) (Kochia (Kochia scoparia) [15]): 80
